From PMC8282797, “Strictly regulated agonist-dependent activation of AMPA-R is the key characteristic of TAK-653 for robust synaptic responses and cognitive improvement” (Scientific Reports, 2021)
Entries after “also recorded” stand apart in the source; their conditions may differ. Like-named read-outs stand apart in the source and are kept apart here.

Tests used:
naïve rats = conditions: cited from earlier work; for NORT (effective doses): summary
AMPA-R [1] = system: AMPA-R; set-up: key to Single effect on Ca2+ level: -: No effect or slight effect; +: Potent; ++: Very potent; conditions: cited from earlier work; for Intracellular Ca2+ level, Agonistic effect @30 μM: absence of AMPA, % of 5 μM AMPA + 10 μM HBT1 response; for EC50: in the presence of 5 μM AMPA, read-out: Intracellular Ca2+ level, Potentiation EC50; for Single effect on Ca2+ level: summary grade
[2] = system: MK-801-induced working memory deficit in rats; set-up: method as in earlier work; conditions: summary, fasted conditions; cited from earlier work
[3] = set-up: method as in earlier work; conditions: cited from earlier work
GluA2o LBD = GluA2o LBD (Homo sapiens, UniProt P42262); set-up: method as in earlier work; conditions: read-out: IC50, binding affinity to the GluA2o LBD by SPA using [3H]-HBT1; cited from earlier work
rats [4] = conditions: cited from earlier work
AMPA-R [5] = experiment: Whole-cell patch clamp recording in acute PFC slices (AMPA-R-mediated EPSPs); type: cell-based, rat; set-up: key to Synaptic EPSP response: -: No effect or slight effect; +: Potent; ++: Very potent; conditions: for Synaptic EPSP response: summary grade
Experimental: Coronal PFC slices were prepared from male Sprague–Dawley rats (10- to 14-day-old). The slices including layer V PFC pyramidal neurons were perfused at a flow rate of 1–2 ml/min with recording aCSF containing the following: 124 mM NaCl, 5 mM KCl, 1.2 mM NaH2PO4, 1.5 mM MgCl2, 2.5 mM CaCl2, 10 mM glucose, 24 mM NaHCO3 bubbled with carbogen (95% O2; 5% CO2). Current clamp recordings at holding potential of approximately − 65 mV with constant current were carried out at 32–33 °C using a pipette filled with an intracellular solution consisting of: 140 mM K-gluconate, 4 mM KCl, 10 mM HEPES, 0.2 mM EGTA, 4 mM MgATP, 0.3 mM Na2GTP, pH 7.3 with KOH in the presence of bicuculline (20 μM), CGP52422 (10 μM), and APV (50 μM) to block GABAA and B and NMDA receptors, respectively. Methods are described in the Supplementary Information.
Coronal prefrontal cortex (PFC) slices were prepared from male Sprague-Dawley rats (10- to 14-day-old). Animals were sacrificed following acute decapitation, and their brain was quickly removed and placed in an ice-cold modified artificial cerebrospinal fluid (aCSF) of the following composition: 92 mM N-methyl-D-glucamine (NMDG), 2.5 mM KCl, 1.25 mM NaH2PO4, 30 mM NaHCO3, 20 mM HEPES, 25 mM glucose, 2 mM thiourea, 5 mM Na-ascorbate, 3 mM Na-pyruvate, 0.5 mM CaCl2, and 10 mM MgSO4. The pH of the solution was titrated to 7.3-7.4 with concentrated HCl. Coronal slices were cut at a thickness of 300 μm with using a linear slicer PRO7 (Dosaka EM, Kyoto, Japan). Slices were initially recovered for ≤ 15 min at 34°C and then transferred to a holding chamber containing HEPES holding aCSF (92 mM NaCl, 2.5 mM KCl, 1.25 mM NaH2PO4, 30 mM NaHCO3, 20 mM HEPES, 25 mM glucose, 2 mM thiourea, 5 mM Na-ascorbate, 3 mM Na-pyruvate, 2 mM CaCl2 and 2 mM MgSO4) at room temperature for at least 1 h before starting the recording. The slices were then transferred to the recording chamber mounted on a FN1 microscope (Nikon, Tokyo, Japan), in which they were submerged and perfused at a flow rate of 1-2 ml/min with recording aCSF containing the following: 124 mM NaCl, 5 mM KCl, 1.2 mM NaH2PO4, 1.5 mM MgCl2, 2.5 mM CaCl2, 10 mM glucose, 24 mM NaHCO3. All aCSF solutions were continuously bubbled with carbogen (95% O2; 5% CO2). Differential interference contrast (DIC) microscopy (C10639, Hamamatsu, Japan) was used to visualize pyramidal neurons in the PFC. Patch pipettes (5-6 MΩ) were prepared from borosilicate capillary glass using a micropipette puller PC-10 (NARISHIGE, Tokyo, Japan). Current clamp recordings were carried out at 32-33°C using a pipette filled with intracellular solution consisting of: 140 mM K-gluconate, 4 mM KCl, 10 mM HEPES, 0.2 mM EGTA, 4 mM MgATP, 0.3 mM Na2GTP, pH 7.3 with KOH in the presence of bicuculline (20 μM), CGP52422 (10 μM), and APV (50 μM) to block GABAA and B and NMDA receptors, respectively. Signals were recorded using a Multiclamp 700B amplifier (Molecular Devices, LLC, Orleans Drive Sunnyvale, CA), digitized using a Digidata 1440A interface board, filtered between 2 kHz, sampled at 10 kHz, and analyzed with pClamp10 software. Layer V PFC pyramidal neurons were recorded at holding potential of approximately –65 mV with constant current. A hyperpolarizing step (–20 pA) prior to each stimulation was used to monitor any changes in access resistance. Postsynaptic potentials were evoked by constant current single stimulation pulses (100 μs, 10-100 μA) delivered with a 20-s interstimulus interval using monopolar stimulating electrodes positioned in layer I.

AMPA-R [6] = system: AMPA-R; set-up: key to Single effect on AMPA-R currents: -: No effect or slight effect; +: Potent; ++: Very potent; conditions: cited from earlier work; for AMPA-R currents, Agonistic effect @30 μM: absence of AMPA, % of AMPA (100 μM)-induced steady-state response; for EC50: in the presence of 1 μM AMPA, read-out: AMPA-R currents, Potentiation EC50; for Single effect on AMPA-R currents: summary grade
[7] = system: MK-801-induced working memory deficit in rats; experiment: Radial arm maze (RAM) test, MK-801-induced working memory deficit; type: in vivo, rat
Experimental: RAM tests were performed using 9-week-old male Long-Evans rats as previously described with a minor modification. Each arm was 50 cm long, 10 cm wide and 40 cm high, and the maze was elevated 50 cm above the floor. Long-Evans rats were food-restricted to 85% of free-feeding body weight throughout the experimental period. Rats were well trained to collect pellets placed on the edge of each arm. The learning criterion for the testing session was defined as 2 errors or fewer for 2 consecutive days. In the testing session, each rat was placed on the maze facing the fixed arm at the start of the trial. The entry of rats into each arm was recorded in sequence until all pellets in the 8 arms were consumed, or 5 min had elapsed. […] Thirty min after dosing of vehicle or MK-801, rats were placed on the maze. Details are described in the Supplementary Information.
The experiment was performed using 9-week-old male Long-Evans rats as described previously (Zajaczkowski et al., 1996) with a minor modification. Each arm was 50 cm long, 10 cm wide and 40 cm high, and the maze was elevated 50 cm above the floor. After being fasted for 24 h, male Long-Evans rats were food-restricted to 85% of free-feeding body weight on the first day of exposure to the maze and throughout the experimental period. The experiment consists of two sessions, training and testing session. In the training session, rats were habituated to the maze and then trained. Reinforcement consisted of 3 food pellets (45 mg each) in the food cup was used. On the first day of habituation to the maze, reinforcements were placed near the entrance and at the mid-point of each arm. Three rats were placed on the maze at one time and allowed to explore and consume the pellets for 8 min. On the second day of habituation, each rat was placed on the maze and allowed 5 min to consume the pellets placed at the mid-point and in the food cup at the end of each arm. From the third day, reinforcement was placed in the food cup at the end of each arm. Rats were well trained to collect pellets placed on the edge of each arm. The learning criterion for the testing session was defined as 2 errors or less for two consecutive days. In the previous day of the testing session, baseline level of performance was qualified to confirm that rats completed collecting all pellets placed in the 8 arms with two errors or less. In the testing session, each rat was placed on the maze facing away from the experimenter and facing the fixed arm at the start of the trial. The entry of rats into each arm was recorded in sequence. Rats were allowed to explore until all pellets in the 8 arms were consumed, or 5 min had elapsed. Entry into an arm previously chosen was counted as an error. […] […] Thirty min after dosing of vehicle or MK-801, rats were placed on the maze. Data were indicated as the mean ± SEM in the testing session.

rats [8] = system: rats; set-up: method as in PMID 30209408; conditions: 10 and 30 mg/kg, p.o.; cited from earlier work

Chain of GluA2o LBD (P42262 with tags, fused parts or gaps): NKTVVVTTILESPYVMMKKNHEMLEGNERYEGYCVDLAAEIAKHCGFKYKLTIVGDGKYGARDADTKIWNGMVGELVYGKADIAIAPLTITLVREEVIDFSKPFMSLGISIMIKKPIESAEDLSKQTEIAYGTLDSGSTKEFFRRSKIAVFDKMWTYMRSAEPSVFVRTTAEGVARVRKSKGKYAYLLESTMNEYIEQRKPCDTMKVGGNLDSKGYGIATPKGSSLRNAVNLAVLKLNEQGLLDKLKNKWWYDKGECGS

Compound	NORT (effective doses) (naïve rats)	Intracellular Ca2+ level, Agonistic effect @30 μM (AMPA-R [1]) [%]	EC50 (AMPA-R [1]) [µM]	Single effect on Ca2+ level (AMPA-R [1])	IC50 (GluA2o LBD) [µM]	Margin based on AUCplasma (rats [4]) [fold]	Margin based on plasma Cmax (rats [4]) [fold]	Synaptic EPSP response (AMPA-R [5])	AMPA-R currents, Agonistic effect @30 μM (AMPA-R [6]) [%]	EC50 (AMPA-R [6]) [µM]	Single effect on AMPA-R currents (AMPA-R [6])	also measured
O=S1(=O)CCN2C=CC=C(c3ccc(Oc4ccccc4)cc3)C2=N1 [TAK-137, 9-(4-phenoxyphenyl)-3,4-dihydropyrido[2,1-c][1,2,4]thiadiazine 2,2-dioxide]	Effective (0.1, 1)	7.6	0.42	─	0.065	122	42	++	6.4	1.4	─	RAM (effective doses) [2]: Effective (0.2, 0.6) ^\; Brain concentration under fasted conditions, relative to fed conditions [3]: 71%; Plasma concentration under fasted conditions, relative to fed conditions [3]: 67%; Polysynaptic EPSP duration and evoked spikes (AMPA-R [5]; 3 μM, 10 min): potently enhanced; also recorded: robustly enhanced
CC(C)S(=O)(=O)NC[C@H](C)c1ccc(-c2ccc(C#N)cc2)cc1 [LY451646]	Effective (1, 3)	88	0.78	++	0.39	4.0	3.4	+	39	1.9	+	Working memory in the RAM test ([7]; 0.03 to 1 mg/kg, p.o., MK-801 0.08 mg/kg, s.c.): neither LY451646 at 0.03 to 1 mg/kg, p.o. nor AMPA at 0.1 to 3 mg/kg, i.p. improve; RAM (effective doses) ([7]; summary): No effect; Dose improving visual learning and memory in NOR test (naïve rats; p.o., rats): ≥ 1 mg/kg; Seizure (rats [8]): induced seizure; Membrane potentials of recorded neurons (AMPA-R [5]): did not increase; Suprathreshold response (AMPA-R [5]; 30 μM for 10 min): enhanced the suprathreshold response; Suprathreshold polysynaptic EPSPs (number of spikes, EPSP duration) (AMPA-R [5]; 0.3 to 30 μM): moderate potentiation
